Measured values reported in paper PMC8770261, “Automatic Production and Preliminary PET Imaging of a New Imaging Agent [^18F]AlF-FAPT” (Frontiers in Oncology, 2022).

Assay: Biological distribution in normal Kunming mice (γ counter, %ID/g)
Format: in vivo
Details: tail vein injection, 60 min
Protocol: The biological distribution experiment of [^18F]AlF-FAPT was carried out in normal Kunming mice. Twenty Kunming mice were randomly and equally divided into four groups and each injected with 0.1 ml of [^18F]AlF-FAPT (1.48~2.22 MBq) through their tail vein. The mice were then sacrificed after 5, 30, 60, and 90 minutes, followed by weighing their organs and determining the radioactivity using a γ counter. The radioactivity of each organ was normalized using the percentage of injected dose per gram of tissue (% ID/g). [^18F]FAPI-42 also used the same method mentioned above to carry out the biological distribution at the time point of 60 minutes.

- radioactivity uptake value in the gallbladder: 7.30 ± 1.43 %ID/g
SMILES: N#C[C@@H]1CC(F)(F)CN1C(=O)CNC(=O)c1ccnc2ccc(OCCCN3CCN(C(=O)CN4CCN5CCN(CC4)CC(=O)[O][Al]([F])[O]C(=O)C5)CC3)cc12 [[^18F]FAPI-42]
